Data from patent publication US20210220408A1, “ARYL HYDROCARBON RECEPTOR ANTAGONISTS AND METHODS OF USE” (Magenta Therapeutics Inc., priority 2018, published 2021).

Assays:
[1] = target: T1, aryl hydrocarbon receptor (AHR) (Homo sapiens, UniProt P35869); assay: DRE-Luciferase reporter high-throughput screen (AHR antagonist, VAF347-activated)
T1 sequence (P35869 11-848): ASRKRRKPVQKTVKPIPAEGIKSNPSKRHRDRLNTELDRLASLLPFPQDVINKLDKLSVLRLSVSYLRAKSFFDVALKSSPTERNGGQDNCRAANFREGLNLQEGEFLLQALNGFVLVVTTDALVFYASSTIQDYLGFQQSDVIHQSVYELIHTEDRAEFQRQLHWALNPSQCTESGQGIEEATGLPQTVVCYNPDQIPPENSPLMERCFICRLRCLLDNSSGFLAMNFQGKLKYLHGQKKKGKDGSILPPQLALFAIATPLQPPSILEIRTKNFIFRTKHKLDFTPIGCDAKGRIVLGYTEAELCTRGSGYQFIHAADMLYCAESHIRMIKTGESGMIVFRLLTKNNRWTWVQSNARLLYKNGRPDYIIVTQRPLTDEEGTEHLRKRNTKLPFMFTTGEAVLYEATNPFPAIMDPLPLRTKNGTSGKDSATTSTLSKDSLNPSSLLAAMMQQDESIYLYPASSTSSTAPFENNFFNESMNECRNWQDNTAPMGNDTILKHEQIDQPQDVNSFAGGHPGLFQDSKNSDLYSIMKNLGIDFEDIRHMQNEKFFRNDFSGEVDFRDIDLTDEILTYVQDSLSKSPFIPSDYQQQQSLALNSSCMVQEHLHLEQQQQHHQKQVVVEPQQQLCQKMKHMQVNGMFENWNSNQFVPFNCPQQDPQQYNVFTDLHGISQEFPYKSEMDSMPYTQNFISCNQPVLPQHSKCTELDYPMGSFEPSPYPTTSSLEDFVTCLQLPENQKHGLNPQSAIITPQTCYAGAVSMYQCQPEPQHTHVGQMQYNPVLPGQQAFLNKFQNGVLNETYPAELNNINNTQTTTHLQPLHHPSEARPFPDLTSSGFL

[2] = tested on: mobilized peripheral blood CD34+ cells; assay: CD34+ expansion assay; assay type: cell-based; settings: Homo sapiens; read-out: CD34 Frequency EC50
Protocol: Approximately 3,000 mobilized peripheral blood CD34+ cells were plated per well in 384-well plate at a final volume of 45 μL in HSC growth media (SFEM supplemented with Pen/Strep, 50 ng/mL FLT3L, TPO, SCF and IL-6). Serial dilutions were made in HSC growth media with a top final concentration of 10 μM. 5 μL 10× stock was added to each well. The plate was gently tapped on all sides and incubated for 7 days at 37° C./5% CO2. On day 7, the media was aspirated on a Biotek plate washer and 30 μL staining solution was added to the cells with antibodies against CD34-PE, CD90-APC, CD45RA-PE-CF594 in PBS. Cells were washed once in PBS and resuspended in 80 μL for final volume. 40 μL was acquired by flow cytometry (BD Celesta).

| Compound | IC50 [1] | EC50 [2] |
| --- | --- | --- |
| O=c1[nH]c2ccc(-c3csc(-c4ccccn4)n3)cc2[nH]1 [compound 58] | 500 to 1000 nM | ≥ 5000 nM |
| CC(C)n1nnc2cc(C(=O)Nc3ccc(Cl)cc3)ccc21 [compound 17] | 500 to 1000 nM | < 500 nM |
| C/C(=N\Nc1ncc(Br)cn1)c1cccc([N+](=O)[O-])c1 [compound 112] | 500 to 1000 nM | < 500 nM |
| CC(C)(C)c1ccc(O)c(NC(=O)c2cnc3ccccn3c2=O)c1 [compound 27] | 500 to 1000 nM | 1000 to 5000 nM |
| CSc1ccccc1C(=O)Nc1ccc2[nH]c(-c3ccc(F)cc3)nc2c1 [compound 13] | 500 to 1000 nM | < 500 nM |
| Cc1ccc2cc(C(=O)N3CCN(S(=O)(=O)c4cccs4)CC3)[nH]c2c1 [compound 78] | 500 to 1000 nM | ≥ 5000 nM |
| N#Cc1nc(NCC(O)c2ccc(OC(F)F)cc2)ccc1Cl (stereo not shown) [compound 88] | 200 to 500 nM | 1000 to 5000 nM |
| COc1ccc(-c2ccc3c(N)c(C(=O)NC4CC4)sc3n2)cc1 [compound 136] | 500 to 1000 nM | ≥ 5000 nM |
| CCN(C)C(=O)c1cnc(-c2noc3ccccc23)s1 [compound 65] | 500 to 1000 nM | 1000 to 5000 nM |
| CCC(=O)N1CCc2cc(C(=O)Nc3ccn(CCc4ccccn4)n3)ccc21 [compound 47] | 500 to 1000 nM | 1000 to 5000 nM |
| CC(=O)N(C)Cc1cccc(NC(=O)c2n[nH]c3ccccc23)c1 [compound 30] | 500 to 1000 nM | ≥ 5000 nM |
| FC(F)(F)Oc1ccc(-c2nnc(-c3cccnc3)o2)cc1 [compound 123] | 500 to 1000 nM | 1000 to 5000 nM |
| Cc1cccc(NC(=O)c2cc(-c3ccc(C)cc3O)n[nH]2)c1 [compound 20] | 500 to 1000 nM | 500 to 1000 nM |
| O=C(Nc1ccc2ccccc2n1)c1ccccc1Cl [compound 12] | 500 to 1000 nM | 500 to 1000 nM |
| Nc1cc(-c2ccc3c(c2)CCCC3)nn1-c1ccccc1 [compound 92] | 500 to 1000 nM | ≥ 5000 nM |
| COc1ccccc1C(=O)Nc1cccc(-c2cn3ccsc3n2)c1 [compound 6] | 500 to 1000 nM | 1000 to 5000 nM |
| Cc1cccc(-c2nc(-c3c[nH]c(C(=O)N4CCCC4)c3)cs2)c1 [compound 126] | 500 to 1000 nM | 1000 to 5000 nM |
| O=C1CN(C(=O)c2sc3ccccc3c2Cl)c2ccccc2N1 [compound 132] | 500 to 1000 nM | 1000 to 5000 nM |
| Cc1cc(C(=O)NNC(=O)c2cnn(-c3ccccc3C)c2C(F)(F)F)c(C)o1 [compound 139] | 500 to 1000 nM | ≥ 5000 nM |
| Cc1ccc(-c2c(C)sc(NC(=O)c3cccnc3)c2C(N)=O)cc1 [compound 42] | 500 to 1000 nM | 1000 to 5000 nM |

More lines, now with the values ahead:

| IC50 [1] | EC50 [2] | Compound |
| --- | --- | --- |
| 200 to 500 nM | 500 to 1000 nM | OCCCc1nc2n(n1)C(c1cccc(Br)c1)C=C(c1ccc(Cl)cc1)N2 (stereo not shown) [compound 109] |
| < 200 nM | < 500 nM | COc1ccc(C(=O)Nc2ccc3c(c2)oc2ccccc23)cc1[N+](=O)[O-] [compound 14] |
| < 200 nM | < 500 nM | Cc1cnn(-c2nc(-c3ccc(F)cc3)cc(C(F)(F)F)n2)c1 [compound 83] |
| 200 to 500 nM | 500 to 1000 nM | O=[N+]([O-])c1ccc(-c2cn3nc(C(F)(F)F)sc3n2)cc1 [compound 68] |
| < 200 nM | < 500 nM | CCc1cccc2c(-c3cn4cc(S(N)(=O)=O)ccc4n3)c[nH]c12 [compound 100] |
| 200 to 500 nM | 1000 to 5000 nM | COc1ccc(-n2nnc(C(=O)Nc3ccccc3C(F)(F)F)c2N)cc1 [compound 28] |
| 200 to 500 nM | 500 to 1000 nM | O=C(Nc1ccc(N2CCCC2)nc1)c1cc2c(F)cccc2s1 [compound 46] |
| 200 to 500 nM | 1000 to 5000 nM | Cc1ccc(Cc2c(C)nc(Nc3nc(C)c4ccc(C)cc4n3)[nH]c2=O)cc1 [compound 124] |
| < 200 nM | < 500 nM | Cc1ccc2nc(-c3ccc(Cl)cc3)cc(C(N)=O)c2c1 [compound 116] |
| < 200 nM | ≥ 5000 nM | COC(=O)c1sc(NC(=O)c2cc(C)n(C)n2)cc1C [compound 41] |
| < 200 nM | 500 to 1000 nM | Cc1noc(C)c1C(=O)Nc1ccc2oc(-c3cc(F)ccc3Br)nc2c1 [compound 45] |
| 200 to 500 nM | 500 to 1000 nM | CCc1ccc(C(=O)Nc2scc(-c3ccc(Cl)cc3)c2C(N)=O)s1 [compound 43] |
